Patent US7943770B2, “Fused quinoline derivative and use thereof” (Takeda Pharmaceutical Company Limited, priority 2004, dated 2011)

Biological target: T1, hNK2 receptor (Homo sapiens, UniProt P21452)
T1 construct: host or cells: CHO cells
T1 sequence (P21452 1-398): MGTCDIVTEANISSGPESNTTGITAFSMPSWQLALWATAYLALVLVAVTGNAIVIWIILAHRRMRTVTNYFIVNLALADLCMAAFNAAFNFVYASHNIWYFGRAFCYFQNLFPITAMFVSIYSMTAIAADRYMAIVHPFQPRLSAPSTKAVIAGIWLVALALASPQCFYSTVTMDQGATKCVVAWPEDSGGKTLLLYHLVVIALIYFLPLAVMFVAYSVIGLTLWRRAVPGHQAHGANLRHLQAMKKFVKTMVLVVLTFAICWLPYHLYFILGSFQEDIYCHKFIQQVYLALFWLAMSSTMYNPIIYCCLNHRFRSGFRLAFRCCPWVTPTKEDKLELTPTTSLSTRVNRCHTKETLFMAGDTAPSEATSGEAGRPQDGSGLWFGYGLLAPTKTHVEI
Assay: Radio-ligand ([125I]-NKA) receptor binding inhibitory activity using membrane fraction of hNK2 receptor-expressing CHO cell
Details: membrane fraction of hNK2 receptor-expressing CHO cells, 25° C., 30 min
Description: hNK2 receptor-expressing CHO cells (produced by EUROSCREEN) were cultured in HAM-F12 medium containing 400 μg/ml Geneticin, 100 U/mL penicillin, 100 μg/mL streptomycin and 10% inactivated serum. The medium was removed and adhered cells were washed with PBS, and PBS containing 5 mM EDTA was added to detach the cells from the flask. The cells were recovered by centrifugation, suspended in suspending buffer A (15 mM Tris-HCl (pH 7.5), 2 mM MgCl2, 0.3 mM EDTA, 1 mM EGTA), disrupted by POLYTRON homogenizer (manufactured by KINEMATICA) and centrifuged at 800×g for 10 min. The supernatant was recovered and ultracentrifuged at 100000×g for 25 min. The precipitated fraction was suspended in suspending buffer B (7.5 mM Tris-HCl (pH 7.5), 12.5 mM MgCl2, 0.3 mM EDTA, 1 mM, […], 250 mM Sucrose) and cryopreserved (at −80° C.) as a receptor specimen.
An assay buffer (50 μl, 50 mM Tris-HCl (pH 7.4), 0.02% bovine serum albumin, 2 μg/mL chymostatin, 40 μg/mL bacitracin, 40 μg/mL APMSF, 3 mM MnCl2) was added to a 96 well microassay plate. Thereto was added a 20 μg/mL membrane specimen suspended in the assay buffer (50 μL). An assay buffer (50 μL) containing 2% dimethyl sulfoxide was added to examine the total binding, 4 unlabeled NKA (produced by Peptide Institute, Inc.) solution (50 μL) diluted with an assay buffer containing 2% dimethyl sulfoxide was added to examine non-specific binding, and a test compound diluted with an assay buffer (50 containing 2% dimethyl sulfoxide) was added to examine the binding inhibitory activity of the test compound. Furthermore, […] [^125I]-NKA (produced by Amersham Biosciences) solution (50 μL) was added to each well.
After reaction at 25° C. for 30 min., the reaction was stopped by rapid filtration on a unifilter plate (GF/C) (manufactured by PerkinElmer) using a cell harvester (manufactured by PerkinElmer) and the cells were washed 5 times with 50 mM Tris-HCl (pH 7.4) buffer containing 0.02% bovine serum albumin (250 μL). The GF/C filter plate was dried and 20 μl, of MicroScinti-O (manufactured by PerkinElmer) was added and the radioactivity was measured in Topcount (manufactured by PerkinElmer). The GF/C filter plate, which had been immersed in 0.3% polyethyleneimine for one day, was used. Specific binding is shown by the value obtained by subtracting non-specific binding from the total binding. The binding inhibitory activity of the test compound is shown by the ratio of the value obtained by subtracting the measured value associated with the addition of the test compound from the total binding, to the value of the specific binding.

Structure (SMILES)	IC50 [nM]
O=C(N[C@@H]1CCCC[C@@H]1C(=O)N1CC[C@@H]2[C@H](c3ccn[nH]3)Nc3ccccc3[C@@H]21)c1ccccc1 (relative stereo) [Example 56, N-((1R,2S)-2-{[(3aR*,4R*,9bR*)-4-(1H-Pyrazol-5-yl]-2,3,3a,4,5,9b-hexahydro-1H-pyrrolo[3,2-c]quinolin-1-yl]carbonyl}cyclohexyl)benzamide]	< 10
O=C(N[C@@H]1CCCC[C@@H]1C(=O)N1CC[C@@H]2[C@H](c3ccccc3)Nc3ccccc3[C@@H]21)c1ccccc1 [Example 58, N-{(1R,2S)-2-[((3aR,4R,9bR)-4-Phenyl-2,3,3a,4,5,9b-hexahydro-1H-pyrrolo[3,2-c]quinolin-1-yl)carbonyl]cyclohexyl}benzamide]	< 10
O=C(N[C@@H]1CCCC[C@@H]1C(=O)N1CC[C@@H]2[C@H](C3CC3)Nc3ccccc3[C@@H]21)c1ccccc1 [Example 59, N-((1R,2S)-2-[(3aR,4S,9bR)-(4-Cyclopropyl-2,3,3a,4,5,9b-hexahydro-1H-pyrrolo[3,2-c]quinolin-1-yl)carbonyl]cyclohexyl)benzamide]	< 10
O=C(N[C@@H]1CCCC[C@@H]1C(=O)N1CC[C@@H]2[C@H](c3ccsc3)Nc3ccccc3[C@@H]21)c1ccccc1 [Example 60, N-((1R,2S)-2-{[(3aR,4R,9bR)-4-(3-Thienyl)-2,3,3a,4,5,9b-hexahydro-1H-pyrrolo[3,2-c]quinolin-1-yl]carbonyl}cyclohexyl)benzamide]	< 1
O=C(N[C@@H]1CCCC[C@@H]1C(=O)N1CC[C@@H]2[C@H](c3ccccc3)Nc3ccc(F)cc3[C@@H]21)c1ccccc1 [Example 61, N-((1R,2S)-2-{[(3aR,4R,9bR)-8-Fluoro-4-phenyl-2,3,3a,4,5,9b-hexahydro-1H-pyrrolo[3,2-c]quinolin-1-yl]carbonyl}cyclohexyl)benzamide]	< 10
CCC[C@@H]1Nc2ccccc2[C@H]2[C@@H]1CCN2C(=O)[C@H]1CCCC[C@H]1NC(=O)c1ccccc1 [Example 62, N-{(1R,2S)-2-[(3aR,4S,9bR)-(4-Propyl-2,3,3a,4,5,9b-hexahydro-1H-pyrrolo[3,2-c]quinolin-1-yl)carbonyl]cyclohexyl}benzamide]	< 1
O=C(N[C@@H]1CCCC[C@@H]1C(=O)N1CC[C@@H]2[C@H](c3ccoc3)Nc3ccccc3[C@@H]21)c1ccccc1 [Example 63, N-((1R,2S)-2-{[(3aR,4R,9bR)-4-(3-Furyl)-2,3,3a,4,5,9b-hexahydro-1H-pyrrolo[3,2-c]quinolin-1-yl]carbonyl}cyclohexyl)benzamide]	< 1
O=C(N[C@@H]1CCCC[C@@H]1C(=O)N1CC[C@@H]2[C@H](c3ccc[nH]3)Nc3ccccc3[C@@H]21)c1ccccc1 [Example 64, N-((1R,2S)-2-{[(3aR,4R,9bR)-4-(1H-Pyrrol-2-yl)-2,3,3a,4,5,9b-hexahydro-1H-pyrrolo[3,2-c]quinolin-1-yl]carbonyl}cyclohexyl)benzamide]	< 1
CC(C)C[C@@H]1Nc2ccccc2[C@H]2[C@@H]1CCN2C(=O)[C@H]1CCCC[C@H]1NC(=O)c1ccccc1 [Example 66, N-((1R,2S)-2-{[(3aR,4S,9bR)-4-Isobutyl-2,3,3a,4,5,9b-hexahydro-1H-pyrrolo[3,2-c]quinolin-1-yl]carbonyl}cyclohexyl)benzamide]	< 10
O=C(NCC[C@@H]1Nc2ccccc2[C@H]2[C@@H]1CCN2C(=O)[C@H]1CCCC[C@H]1NC(=O)c1ccccc1)OCc1ccccc1 [Example 68, Benzyl 2-((3aR,4S,9bR)-1-{[(1S,2R)-2-(benzoylamino)cyclohexyl]carbonyl}-2,3,3a,4,5,9b-hexahydro-1H-pyrrolo[3,2-c]quinolin-4-yl)ethylcarbate]	< 10
Cc1occc1[C@@H]1Nc2ccccc2[C@H]2[C@@H]1CCN2C(=O)[C@H]1CCCC[C@H]1NC(=O)c1ccccc1 [Example 75, N-((1R,2S)-2-{[(3aR,4R,9bR)-4-(2-Methyl-3-furyl)-2,3,3a,4,5,9b-hexahydro-1H-pyrrolo[3,2-c]quinolin-1-yl]carbonyl}cyclohexyl)benzamide]	< 10

Next, values leading:

IC50 [nM]	Structure (SMILES)
< 10	O=C(NC1(CC(=O)N2CC[C@@H]3[C@H](c4ccccc4)Nc4ccccc4[C@@H]32)CCCCC1)c1ccccc1 (relative stereo) [Example 312, N-(1-{2-oxo-2-[(3aR*,4R*,9bR*)-4-phenyl-2,3,3a,4,5,9b-hexahydro-1H-pyrrolo[3,2-c]quinolin-1-yl]ethyl}cyclohexyl)benzamide]
< 10	O=C(N[C@@H]1CCCC[C@@H]1C(=O)N1CC[C@@H]2C(C3CCOCC3)Nc3ccccc3[C@@H]21)c1ccccc1 (stereo in doubt) [Example 79, N-((1R,2S)-2-{[(3aR,4R,9bR)-4-Tetrahydro-2H-pyran-4-yl-2,3,3a,4,5,9b-hexahydro-1H-pyrrolo[3,2-c]quinolin-1-yl]carbonyl}cyclohexyl)benzamide]
< 10	O=C(N[C@@H]1CCCC[C@@H]1C(=O)N1CC[C@@H]2[C@H](c3cocn3)Nc3ccccc3[C@@H]21)c1ccccc1 [Example 76, N-((1R,2S)-2-{[(3aR,4R,9bR)-4-(1,3-Oxazol-4-yl)-2,3,3a,4,5,9b-hexahydro-1H-pyrrolo[3,2-c]quinolin-1-yl]carbonyl}cyclohexyl)benzamide]
< 10	O=C(N[C@@H]1CCCC[C@@H]1C(=O)N1CC[C@@H]2[C@H](c3cncs3)Nc3ccccc3[C@@H]21)c1ccccc1 [Example 78, N-((1R,2S)-2-{[(3aR,4R,9bR)-4-(1,3-Thiazol-5-yl)-2,3,3a,4,5,9b-hexahydro-1H-pyrrolo[3,2-c]quinolin-1-yl]carbonyl}cyclohexyl)benzamide]
< 1	O=C(N[C@@H]1CCCC[C@@H]1C(=O)N1CC[C@@H]2[C@H](c3ncc[nH]3)Nc3ccccc3[C@@H]21)c1ccccc1 [Example 81, N-((1R,2S)-2-{[(3aR,4R,9bR)-4-(1H-imidazol-2-yl)-2,3,3a,4,5,9b-hexahydro-1H-pyrrolo[3,2-c]quinolin-1-yl]carbonyl}cyclohexyl)benzamide]
< 10	Cn1ccnc1[C@@H]1Nc2ccccc2[C@H]2[C@@H]1CCN2C(=O)[C@H]1CCCC[C@H]1NC(=O)c1ccccc1 [Example 82, N-((1R,2S)-2-{[(3aR,4R,9bR)-4-(1-Methyl-1H-imidazol-2-yl)-2,3,3a,4,5,9b-hexahydro-1H-pyrrolo[3,2-c]quinolin-1-yl]carbonyl}cyclohexyl)benzamide]
< 10	C[C@]12CCN(C(=O)[C@H]3CCCC[C@H]3NC(=O)c3ccccc3)[C@H]1c1ccccc1N[C@H]2c1ccccc1 [Example 83, N-((1R,2S)-2-{[(3aR,4S,9bR)-3a-Methyl-4-phenyl-2,3,3a,4,5,9b-hexahydro-1H-pyrrolo[3,2-c]quinolin-1-yl]carbonyl}cyclohexyl)benzamide]
< 10	CC(=O)N[C@@H]1CCCC[C@@H]1C(=O)N1CC[C@@H]2[C@H](c3ccccc3)Nc3ccccc3[C@@H]21 [Example 85, N-((1R,25)-2-{[(3aR,4R,9bR)-4-Phenyl-2,3,3a,4,5,9b-hexahydro-1H-pyrrolo[3,2-c]quinolin-1-yl]carbonyl}cyclohexyl)acetamide]
< 10	CCC(=O)N[C@@H]1CCCC[C@@H]1C(=O)N1CC[C@@H]2[C@H](c3ccccc3)Nc3ccccc3[C@@H]21 [Example 86, N-((1R,2S)-2-{[(3aR,4R,9bR)-4-Phenyl-2,3,3a,4,5,9b-hexahydro-1H-pyrrolo[3,2-c]quinolin-1-yl]carbonyl}cyclohexyl)propanamide]
